The values that follow come from ChEMBL document CHEMBL3045439, “Isoforms of the heteropteran Nezara viridula ecdysone receptor: protein characterisation, RH5992 insecticide binding and homology modelling” (Pest Manag Sci, 2011).

Holding throughout (format): protein-complex assay
Experiment [1] addresses T1, Ecdysone receptor (Myzus persicae, UniProt A3EZJ9+A3EZK0).
T1 sequence (A3EZJ9 whole entry): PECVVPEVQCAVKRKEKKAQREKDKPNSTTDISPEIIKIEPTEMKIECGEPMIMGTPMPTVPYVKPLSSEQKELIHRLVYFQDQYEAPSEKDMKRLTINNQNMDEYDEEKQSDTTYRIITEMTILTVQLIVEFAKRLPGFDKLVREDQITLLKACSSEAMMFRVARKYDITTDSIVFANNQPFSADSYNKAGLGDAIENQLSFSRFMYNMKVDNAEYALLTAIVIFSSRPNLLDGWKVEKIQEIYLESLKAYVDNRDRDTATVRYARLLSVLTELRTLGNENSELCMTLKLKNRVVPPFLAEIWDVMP
T1 sequence (A3EZK0 whole entry): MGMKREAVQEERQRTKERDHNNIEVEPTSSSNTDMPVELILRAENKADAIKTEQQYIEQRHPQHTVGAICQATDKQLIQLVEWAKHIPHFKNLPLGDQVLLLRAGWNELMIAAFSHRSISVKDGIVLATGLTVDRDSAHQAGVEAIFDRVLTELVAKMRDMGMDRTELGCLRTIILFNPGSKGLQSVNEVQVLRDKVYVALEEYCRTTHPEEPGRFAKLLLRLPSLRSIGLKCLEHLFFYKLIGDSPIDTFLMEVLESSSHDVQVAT
Put plainly: Binding affinity to Myzus persicae EcR (green peach aphid).

In experiment [2] the target is T2, Ecdysone receptor (Anthonomus grandis, UniProt B8RG26+Q4W6C8).
T2 sequence (B8RG26 whole entry): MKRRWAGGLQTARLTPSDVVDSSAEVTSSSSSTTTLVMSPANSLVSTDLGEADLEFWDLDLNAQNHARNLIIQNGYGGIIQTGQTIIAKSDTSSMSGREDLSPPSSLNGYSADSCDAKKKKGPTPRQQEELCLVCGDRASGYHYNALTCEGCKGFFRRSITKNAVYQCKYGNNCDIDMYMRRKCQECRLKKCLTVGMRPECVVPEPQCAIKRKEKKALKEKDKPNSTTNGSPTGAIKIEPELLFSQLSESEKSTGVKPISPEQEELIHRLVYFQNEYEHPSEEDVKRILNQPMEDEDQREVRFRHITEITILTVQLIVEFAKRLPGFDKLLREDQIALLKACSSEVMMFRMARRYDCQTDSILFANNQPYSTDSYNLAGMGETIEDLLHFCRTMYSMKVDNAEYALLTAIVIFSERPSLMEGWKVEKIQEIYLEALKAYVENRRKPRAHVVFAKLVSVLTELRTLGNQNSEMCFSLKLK
T2 sequence (Q4W6C8 whole entry): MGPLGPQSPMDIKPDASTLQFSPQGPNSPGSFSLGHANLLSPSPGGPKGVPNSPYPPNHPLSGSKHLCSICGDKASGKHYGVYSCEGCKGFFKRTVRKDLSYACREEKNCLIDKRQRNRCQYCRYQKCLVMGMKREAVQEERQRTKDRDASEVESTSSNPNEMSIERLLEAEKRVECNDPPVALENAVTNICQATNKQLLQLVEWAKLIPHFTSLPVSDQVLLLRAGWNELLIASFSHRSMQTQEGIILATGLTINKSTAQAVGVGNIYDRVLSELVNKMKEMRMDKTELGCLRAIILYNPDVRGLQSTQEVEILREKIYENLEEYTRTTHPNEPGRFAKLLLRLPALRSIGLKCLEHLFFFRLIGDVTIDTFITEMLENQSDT
Kind of experiment: Binding affinity to Anthonomus grandis ecdysone receptor (EcR).

Experiment [3] addresses T3, Ecdysone receptor (Choristoneura fumiferana, UniProt O76202+O77240).
T3 sequence (O77240 whole entry): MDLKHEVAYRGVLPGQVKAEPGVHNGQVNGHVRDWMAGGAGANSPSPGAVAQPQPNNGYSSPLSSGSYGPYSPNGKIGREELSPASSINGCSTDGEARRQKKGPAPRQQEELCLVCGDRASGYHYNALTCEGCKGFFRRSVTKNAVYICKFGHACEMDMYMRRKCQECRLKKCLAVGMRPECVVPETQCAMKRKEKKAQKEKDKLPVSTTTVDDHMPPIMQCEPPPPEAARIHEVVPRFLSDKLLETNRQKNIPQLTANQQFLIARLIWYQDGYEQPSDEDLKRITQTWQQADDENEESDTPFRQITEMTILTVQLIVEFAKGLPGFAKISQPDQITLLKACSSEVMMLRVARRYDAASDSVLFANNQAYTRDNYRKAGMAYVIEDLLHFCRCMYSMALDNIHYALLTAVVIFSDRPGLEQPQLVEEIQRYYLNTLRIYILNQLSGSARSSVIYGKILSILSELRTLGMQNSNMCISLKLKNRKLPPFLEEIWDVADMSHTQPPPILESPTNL
T3 sequence (O76202 whole entry): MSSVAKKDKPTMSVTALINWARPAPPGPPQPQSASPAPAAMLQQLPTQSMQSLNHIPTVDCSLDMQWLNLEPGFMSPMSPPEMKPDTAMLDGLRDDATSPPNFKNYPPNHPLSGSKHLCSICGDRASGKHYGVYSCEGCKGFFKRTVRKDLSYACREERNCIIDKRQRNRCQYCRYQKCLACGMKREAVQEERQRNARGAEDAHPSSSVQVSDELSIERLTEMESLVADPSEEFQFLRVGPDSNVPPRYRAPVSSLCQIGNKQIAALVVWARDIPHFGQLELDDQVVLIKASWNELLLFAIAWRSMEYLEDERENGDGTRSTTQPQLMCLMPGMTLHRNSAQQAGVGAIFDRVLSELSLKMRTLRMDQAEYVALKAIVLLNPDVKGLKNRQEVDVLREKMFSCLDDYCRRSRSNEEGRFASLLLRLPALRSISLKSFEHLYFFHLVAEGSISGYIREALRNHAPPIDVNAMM
Kind of experiment: Binding affinity to Choristoneura fumiferana EcR.

Take `CCc1ccc(C(=O)NN(C(=O)c2cc(C)cc(C)c2)C(C)(C)C)cc1` [TEBUFENOZIDE]: the Ki is above 126 µM in experiment [1], 12.6 µM in experiment [2] and 0.000501 µM in experiment [3].
